Laboratory results as given in PubChem BioAssay (NCI).
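Five compound concentrations were applied to cells in 96-well plates for 48 hours; endpoints were derived by simple linear interpolation of the resulting dose-response curve. TGI: concentration producing complete growth inhibition.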

Key:
Assay in all cases: NCI anticancer screen, dose series, 48 h
MDA-MB-435 = test system: MDA-MB-435
786-0 renal = test system: 786-0 renal
SF-295 CNS = test system: SF-295 CNS
SN12C renal = test system: SN12C renal
A549 NSCLC = test system: A549 NSCLC
NCI-H522 lung = test system: NCI-H522 lung
SK-OV-3 ovarian = test system: SK-OV-3 ovarian
MDA-MB-231 breast = test system: MDA-MB-231 breast
SK-MEL-2 melanoma = test system: SK-MEL-2 melanoma
MCF7 breast = test system: MCF7 breast
OVCAR-4 ovarian = test system: OVCAR-4 ovarian
SNB-19 CNS = test system: SNB-19 CNS
M14 melanoma = test system: M14 melanoma
NCI-H226 lung = test system: NCI-H226 lung
EKVX NSCLC = test system: EKVX NSCLC
SW-620 colon = test system: SW-620 colon
SF-539 CNS = test system: SF-539 CNS
RXF 393 renal = test system: RXF 393 renal
NCI-H460 lung = test system: NCI-H460 lung

Row | Compound | TGI (MDA-MB-435) [µM] | TGI (786-0 renal) [µM] | TGI (SF-295 CNS) [µM] | TGI (SN12C renal) [µM] | TGI (A549 NSCLC) [µM] | TGI (NCI-H522 lung) [µM] | TGI (SK-OV-3 ovarian) [µM] | TGI (MDA-MB-231 breast) [µM] | TGI (SK-MEL-2 melanoma) [µM] | TGI (MCF7 breast) [µM] | TGI (OVCAR-4 ovarian) [µM] | TGI (SNB-19 CNS) [µM] | TGI (M14 melanoma) [µM] | TGI (NCI-H226 lung) [µM] | TGI (EKVX NSCLC) [µM] | TGI (SW-620 colon) [µM] | TGI (SF-539 CNS) [µM] | TGI (RXF 393 renal) [µM] | TGI (NCI-H460 lung) [µM]
1 | NC(=O)CCC(NC(=O)c1cccc2c(=O)c3ccccc3[nH]c12)C(=O)O (stereo not given) | > 100 | > 100 | > 100 | > 100 | > 100 | > 100 | > 100 | > 100 | > 100 | > 100 | > 100 | > 100 | > 100 | > 100 | > 100 | > 100 | – | – | –
2 | O=c1oc2c/c(=C\c3ccccc3)c(=O)c3cccc1c3-2 | 51.7 | 53.9 | > 100 | > 100 | > 100 | 45.1 | > 100 | 69.2 | – | – | – | 67.9 | 48.6 | 75.3 | > 100 | 57.1 | 67.1 | 72.6 | > 100
3 | Cn1c(N=[N+]=[N-])cc(=O)n(C)c1=O | > 100 | > 100 | > 100 | > 100 | > 100 | > 100 | > 100 | > 100 | > 100 | – | > 100 | > 100 | > 100 | > 100 | > 100 | > 100 | > 100 | > 100 | > 100
4 | Cc1cc(C)c2c(=N)c3ccccc3n(CCCCCCn3c4ccccc4c(=N)c4c(C)cc(C)nc43)c2n1 | 3.3 | 0.816 | 2.85 | 2.88 | 3.03 | 2.31 | 2.98 | 1.09 | 2.97 | – | 3.01 | 2.11 | 3.07 | 2.85 | 3.29 | 0.34 | 3.01 | 2.54 | –
5 | COc1ccc(-c2nnc(CCCCCCCCc3nnc(-c4ccc(OC)cc4)n3N)n2N)cc1 | > 100 | > 31.6 | > 100 | > 100 | > 100 | > 100 | > 100 | > 100 | > 100 | > 100 | > 100 | > 100 | > 100 | > 100 | > 100 | > 100 | > 100 | – | > 100
6 | O=C1C2=C(CCCCC2)C2CCCCC12O (stereo not given) | – | > 100 | > 100 | > 100 | > 100 | > 100 | > 100 | – | > 100 | – | – | > 100 | > 100 | > 100 | > 100 | > 100 | > 100 | > 100 | > 100
7 | COC(=O)[C@@]12OC[C@]34C([C@@H](O)C1O)[C@@]1(C)CC(=O)C(O)=C(C)C1C[C@H]3OC(=O)[C@H](OC(=O)/C=C(/c1ccccc1)C(F)(F)F)[C@H]42 (stereo not given in full) | – | > 25 | 12.7 | > 25 | 20.2 | 13.7 | > 25 | – | > 25 | – | > 25 | 14.2 | 8.48 | 11.7 | > 25 | – | 3.75 | 17.5 | 6.71
